# Entries after “also recorded” stand apart in the source; their conditions may differ.
# What was measured:
# [1] = Safety in the clinical study of metoclopramide nasal spray; format: in vivo, human; conditions: 10 mg or 14 mg IN four times daily, four weeks
# Protocol: The objectives of this study were to evaluate the safety and the effectiveness of two doses of metoclopramide nasal spray solution, 10 mg and 14 mg, compared to placebo in reducing the symptoms of diabetic gastroparesis and to assess the plasma concentrations of two doses of metoclopramide nasal spray in subjects with diabetic gastroparesis following a single dose and at steady state. The aforementioned dosages for the treatment and control of gastroparesis were administered before meals and/or before bed time. Subjects who met the entry criteria after the Washout Period (Day −7 to Day −1) were randomized using an IVRS, to metoclopramide nasal spray 10 mg, 14 mg, or placebo, in roughly equal numbers (approximately 1:1:1) using a predetermined randomization schedule employing permuted blocks. Randomization was preformed centrally.
# The study consisted of up to a 23-day Screening Period, a 7-day Washout Period (Day −7 to Day −1) followed by four weeks of study drug treatment. The total duration of each subject's participation was approximately 8 weeks, 287 subjects were enrolled in the study and were randomized to the following groups: Placebo (n=95), 10 mg intranasal (n=96) and 14 mg intranasal (n=96). Of those subjects enrolled, a total of 259 completed the study (˜90%).
# [2] = Plasma concentration of metoclopramide 30 minutes post-dose, Visit 3 (single dose) and Visit 7 (steady state); format: in vivo, human; conditions: 10 mg and 14 mg IN, Visit 3 and Visit 7, 30 minutes post-dose
# Protocol: Pharmacokinetic (PK) blood samples for the determination of metoclopramide concentration were obtained from all subjects on Visit 3, Day 0 (pre-dose and 30 minutes after dosing [single dose]) and at the Final Visit (Day 28) 30 minutes post-dose (steady state).
# Pharmacokinetics: The pharmacokinetics (PK) of the study drug was evaluated in all subjects. FIG. 1 summarizes PK data (blood plasma concentration of metoclopramide in ng/mL) for both Treatment Arms (10 mg and 14 mg, intranasal) on visit 3 and visit 7. Individual data are represented by circles and the arithmetic mean and geometric mean of each group is represented by lines. (In each case, the upper line represents the arithmetic mean and the lower line represents the geometric mean.) In FIG. 2, the PK data are analyzed by gender.
structure (smiles),measurement,setting,value
"CCN(CC)CCNC(=O)c1cc(Cl)c(N)cc1OC [metoclopramide, -amino-5-chloro-N-(2-(diethylamino)ethyl)-2-methoxybenzamide]",Dose-limiting toxicities,[1],no dose-limiting toxicities
same,Reports of tardive dyskinesia,[1],no reports of tardive dyskinesia
same,Difference in PK data (blood plasma concentration) between females and males,[2],no statistical difference; also recorded: not statistically significant

# — US20200405666A9, “TREATMENT OF SYMPTOMS ASSOCIATED WITH FEMALE GASTROPARESIS” (priority 2011, published 2020)
